Experimental findings from the OPERA property sets (Mansouri et al. 2018) are described below.

Broadly, the logP is a log measure of how a compound divides between an organic and an aqueous phase.

For the molecule `CO[C@H]1C[C@H](O[C@H]2[C@H](C)[C@@H](O[C@@H]3O[C@H](C)C[C@H](N(C)C)[C@H]3O)[C@@H](C)C[C@]3(CO3)C(=O)[C@H](C)[C@@H](O)[C@@H](C)[C@@H](C)OC(=O)[C@@H]2C)O[C@@H](C)[C@@H]1O`, the logP is 1.69.
For the molecule `CC[C@H]1OC(=O)[C@H](C)[C@@H](O[C@H]2C[C@@](C)(OC)[C@@H](O)[C@H](C)O2)[C@H](C)[C@@H](O[C@@H]2O[C@H](C)C[C@H](N(C)C)[C@H]2O)[C@](C)(O)C[C@@H](C)CN(C)[C@H](C)[C@@H](O)[C@]1(C)O`, the logP was found to be 4.02.
In the case of `CCC1OC(=O)C(C)C(OC2CC(C)(OC)C(O)C(C)O2)C(C)C(OC2OC(C)CC(N(C)C)C2O)C(C)(O)CC(C)C(N)C(C)C2OC(=O)OC12C` (stereo not given), the logP amounted to 2.92.
`CCC1OC(=O)C[C@@H](O)[C@H](C)[C@@H](O[C@@H]2O[C@H](C)C[C@H](N(C)C)[C@H]2O)[C@@H](CC=O)C[C@@H](C)C(=O)C=C[C@]2(C)OC2C1C` (stereo not given in full) showed a logP of 2.19.
The figure for `CC[C@H]1OC(=O)C[C@@H](O)[C@H](C)[C@@H](O[C@@H]2O[C@H](C)[C@@H](O)[C@H](N(C)C)[C@H]2O)[C@@H](CCN2C[C@H](C)C[C@H](C)C2)C[C@@H](C)C(=O)C=CC(C)=C[C@@H]1CO[C@@H]1O[C@H](C)[C@@H](O)[C@@H](OC)[C@H]1OC` is 3.8; for `CC[C@H]1OC(=O)C[C@@H](O)[C@H](C)[C@@H](O[C@@H]2O[C@H](C)[C@@H](O[C@H]3C[C@@](C)(O)[C@@H](O)[C@H](C)O3)[C@H](N(C)C)[C@H]2O)[C@@H](CC=O)C[C@@H](C)C(=O)C=CC(C)=CC1CO[C@@H]1O[C@H](C)[C@@H](O)[C@@H](OC)[C@H]1OC` (stereo not given in full) it is 1.63; for `COC1C(OC(C)=O)CC(=O)OC(C)CC2OC2C=CC(=O)C(C)CC(CC=O)C1OC1OC(C)C(O)C(N(C)C)C1O` (stereo not given) it is 0.3.
`CC[C@H]1OC(=O)[C@H](C)[C@@H](O[C@H]2C[C@@](C)(OC)[C@@H](O)[C@H](C)O2)[C@H](C)[C@@H](O[C@@H]2O[C@H](C)C[C@H](N(C)C)[C@H]2O)[C@](C)(O)C[C@@H](C)C(=O)[C@H](C)[C@@H](O)[C@]1(C)O`: the logP is 3.06.
To `CO[C@@H]1[C@@H](O[C@@H]2O[C@H](C)[C@@H](O[C@H]3C[C@@](C)(O)[C@@H](OC(=O)CC(C)C)[C@H](C)O3)[C@H](N(C)C)[C@H]2O)[C@@H](CC=O)C[C@@H](C)C(=O)C=CC2OC2C[C@@H](C)OC(=O)C[C@H]1OC(C)=O` (stereo not given in full) belongs 3.04.
`CCC1OC(=O)CC(O)C(C)C(OC2OC(C)C(O)C(N(C)C)C2O)C(CC=O)CC(C)C(=O)C=CC(C)=CC1CO` (stereo not given): the logP is 0.99.
